Test results as given in paper PMC7589491, “Biomimetic Artificial Membrane Permeability Assay over Franz Cell Apparatus Using BCS Model Drugs” (Pharmaceutics, 2020).
Read-outs that look alike come from different tables or passages of the source.

Experiments:
[1] = test system: Caco-2 cells; details: cited from earlier work
[2] = cited from earlier work
[3] = set-up: method as in PMID 25840123; details: cited from earlier work
[4] = cited from earlier work; remark: listed apart in the source
[5] = Franz–PAMPA permeation study (lipid-impregnated artificial membrane on Franz cells); details: for Papp at 12 h, 10 mg/mL: PAMPA; for Permeability classification in Franz–PAMPA: metoprolol as high permeability marker, best fit method
[6] = pH 7.4; cited from earlier work
[7] = Dose number (D0) in donor compartment; assay type: physicochemical; details: 10 mg/mL in donor, not under infinite dose conditions
[8] = fraction of dose absorbed in humans; cited from earlier work
[9] = cited from earlier work; remark: listed apart in the source
[10] = in vitro; details: PAMPA
[11] = Permeation across non-impregnated membrane on Franz cells; assay type: in vitro ADME; details: PAMPA, pH 7.4; as worded; read-out: Papp non-impregnated one across Franz–PAMPA
[12] = pH 7.4, Papp Franz–PAMPA, PBS pH 7.4, 37 °C, 500 rpm, 12 h, n = 3, best fit of linear portion (sink equation)
[13] = pH 7.4, Papp Non-Sink Arthurson, Franz–PAMPA data, non-sink equation
[14] = pH 7.4, Papp Non-Sink Arthurson
[15] = pH 7.4, Papp across Franz–PAMPA

Row | Structure (SMILES) | Papp at 12 h, 10 mg/mL [5, 12] | Papp at 12 h, 10 mg/mL [5, 13] | D0 [7] | Papp Caco-2 [1] | Papp Corti [2] | Log D pH 7.4 [4] | Papp PAMPA pH 7,4 [6] | Fa(%) [8] | Intrinsic Solubility [9] | other results
1 | Nc1nc2c(ncn2COCCO)c(=O)[nH]1 [Acyclovir] | 0.4 ×10⁻⁶ cm/s | 0.4 ×10⁻⁶ cm/s |  | 0.3 ×10⁻⁶ cm/s | 9.1 ×10⁻⁶ cm/s | −1.7 |  |  |  | Papp Permeapad™ [3]: 7.9 ×10⁻⁶ cm/s; LogP [4]: −1.7
2 | CC1(C)S[C@@H]2[C@H](NC(=O)[C@H](N)c3ccc(O)cc3)C(=O)N2[C@H]1C(=O)O [Amoxicillin] | 0.85 ×10⁻⁶ cm/s | 0.07 ×10⁻⁶ cm/s |  | 0.8 ×10⁻⁶ cm/s |  |  | 1.5 × 10^−6 cm/s |  |  | LogP [4]: 0.9
3 | CC(C)NCC(O)COc1ccc(CC(N)=O)cc1 (stereo not shown) [Atenolol] |  |  | ≤ 0.01 |  |  |  |  |  |  | 
4 | Cn1c(=O)c2c(ncn2C)n(C)c1=O [Caffeine] | 36.2 ×10⁻⁶ cm/s | 53.3 ×10⁻⁶ cm/s | ≤ 0.01 |  | 41.1 ×10⁻⁶ cm/s |  | 10.8 × 10^−6 cm/s |  |  | Papp Permeapad™ [3]: 20.4 ×10⁻⁶ cm/s; Permeability classification in Franz–PAMPA [5]: highly permeable
5 | NC(=O)N1c2ccccc2C=Cc2ccccc21 [Carbamazepine] | 5.97 ×10⁻⁶ cm/s |  |  |  |  |  |  | 100% | 0.12 mg/mL | 
6 | CN/C(=N/CCSCc1nc[nH]c1C)NC#N [Cimetidine] | 35.6 ×10⁻⁶ cm/s | 31 ×10⁻⁶ cm/s |  | 0.7 ×10⁻⁶ cm/s |  | 0.4 |  | 93% | 6.0 mg/mL | Permeability classification in Franz–PAMPA [5]: highly permeable
7 | O=C(O)Cc1ccccc1Nc1c(Cl)cccc1Cl [Diclofenac] |  |  |  |  |  | 1.2 |  | 100% |  | Permeability classification in Franz–PAMPA: highly permeable; Papp at 12 h, 10 mg/mL ([10]; pH 7.4, Papp Franz–PAMPA): 68.1 ×10⁻⁶ cm/s; Papp at 12 h, 10 mg/mL [10, 14]: 105 ×10⁻⁶ cm/s
8 | NS(=O)(=O)c1cc2c(cc1Cl)NCNS2(=O)=O [Hydrochlorothiazide] |  |  |  | 0.5 ×10⁻⁶ cm/s | 31 ×10⁻⁶ cm/s |  | 0.1 × 10^−6 cm/s | 70% |  | Papp at 12 h, 10 mg/mL ([10]; pH 7.4, Papp Franz–PAMPA): 2.74 ×10⁻⁶ cm/s; Papp at 12 h, 10 mg/mL [10, 14]: 2.7 ×10⁻⁶ cm/s
9 | CC(C)Cc1ccc(C(C)C(=O)O)cc1 (stereo not shown) [Ibuprofen] |  |  |  |  |  | 0.7 | 6.8 × 10^−6 cm/s | 93% | 0.01 mg/mL | Papp Permeapad™ [3]: 16.6 ×10⁻⁶ cm/s; LogP [4]: 3.1
10 | CC(C(=O)O)c1cccc(C(=O)c2ccccc2)c1 (stereo not shown) [Ketoprofen] | 12.1 ×10⁻⁶ cm/s |  |  | 20.1 ×10⁻⁶ cm/s | 42.7 ×10⁻⁶ cm/s |  | 16.7 × 10^−6 cm/s |  |  | 
11 | OC[C@@H](O)[C@@H](O)[C@H](O)[C@H](O)CO [Mannitol] |  |  |  |  |  |  |  |  |  | Papp at 10 mg/mL [11]: 0.32 ×10⁻⁶ cm/s; Papp at 12 h, 10 mg/mL [5, 15]: 0.32 ×10⁻⁶ cm/s
12 | C[C@](N)(Cc1ccc(O)c(O)c1)C(=O)O [Methyldopa] |  |  |  | 0.2 ×10⁻⁶ cm/s | 3.2 ×10⁻⁶ cm/s |  |  | 41% |  | LogP [4]: 0.4
13 | Cn1c(=O)c2[nH]cnc2n(C)c1=O [Theophylline] |  |  |  |  |  | −0.05 |  |  | 8.33 mg/mL | 

The next lines start with results.

Row | Papp at 12 h, 10 mg/mL [5, 12] | Papp at 12 h, 10 mg/mL [5, 13] | D0 [7] | Structure (SMILES) | Papp Caco-2 [1] | Papp Corti [2] | Log D pH 7.4 [4] | Papp PAMPA pH 7,4 [6] | Fa(%) [8] | Intrinsic Solubility [9] | other results
14 | 15.8 ×10⁻⁶ cm/s | 59 ×10⁻⁶ cm/s | ≤ 0.01 | COCCc1ccc(OCC(O)CNC(C)C)cc1 (stereo not shown) [Metoprolol] | 23.7 ×10⁻⁶ cm/s | 48.1 ×10⁻⁶ cm/s |  | 3.5 × 10^−6 cm/s |  | 1000.0 mg/mL | Papp at 10 mg/mL [11]: 16.1 ×10⁻⁶ cm/s; Papp Permeapad™ [3]: 1 ×10⁻⁶ cm/s; Papp at 12 h, 10 mg/mL [5, 15]: 16.1 ×10⁻⁶ cm/s
15 |  |  | ≤ 0.01 | COc1ccc2cc([C@H](C)C(=O)O)ccc2c1 [Naproxen] |  |  |  |  |  |  | 
16 | 11 ×10⁻⁶ cm/s | 9.6 ×10⁻⁶ cm/s |  | CN1C(C(=O)Nc2ccccn2)=C(O)c2ccccc2S1(=O)=O [Piroxicam] | 35.6 ×10⁻⁶ cm/s |  | −0.07 | 8.2 × 10^−6 cm/s | 100% | 0.11 mg/mL | Permeability classification in Franz–PAMPA [5]: low permeability drugs
17 | 33.1 ×10⁻⁶ cm/s | 88.4 ×10⁻⁶ cm/s | ≤ 0.01 | CC(C)NCC(O)COc1cccc2ccccc12 (stereo not shown) [Propranolol] | 41.9 ×10⁻⁶ cm/s | 39.7 ×10⁻⁶ cm/s |  | 23.5 × 10^−6 cm/s |  | 33.0 mg/mL | Permeability classification in Franz–PAMPA [5]: highly permeable
18 | 6.81 ×10⁻⁶ cm/s | 5.3 ×10⁻⁶ cm/s | ≤ 0.01 | CNC(=C[N+](=O)[O-])NCCSCc1ccc(CN(C)C)o1 [Ranitidine] | 0.5 ×10⁻⁶ cm/s | 21.5 ×10⁻⁶ cm/s | −0.3 | 0.5 × 10^−6 cm/s |  | 100.0 mg/mL | 
19 | 6.61 ×10⁻⁶ cm/s | 7.7 ×10⁻⁶ cm/s |  | COc1cc(Cc2cnc(N)nc2N)cc(OC)c1OC [Trimethoprim] | 83 ×10⁻⁶ cm/s | 45.5 ×10⁻⁶ cm/s |  | 5.0 × 10^−6 cm/s | 97% |  | 
